US20240025919A1, “AZA-TETRACYCLIC OXAZEPINE COMPOUNDS AND USES THEREOF” (Genentech, Inc., priority 2022, published 2024)
Values joined by “and” are separate entries in the source; they are usually repeats but may differ in a detail not shown here. Identical values can stand only once. Like-named read-outs stand apart in the source and are kept apart here.

What was measured:
[1] = test system: HPAC (homozygous mutant KRAS G12D human pancreatic cell line); experiment: KRAS 3D-Cell Proliferation Assay, HPAC (CellTiter-Glo 3D, 7 days); format: cell-based; details: HPAC 3D culture, read-out: Prolif HPAC 3D ATP IC50
Protocol: (§1) Example 503: KRAS 3D-Cell Proliferation Assays. Cellular potencies of compounds are assessed by evaluating inhibition of proliferation in 3D cultures of homozygous mutant KRAS G12D human pancreatic cell lines (AsPC-1 and HPAC) as compared to a KRAS wild type human lung adenocarcinoma cell line (PC-9 and/or H1975). Cells are seeded into 384-well black round-bottom, ultra-low attachment assay plates in 50 uL cell growth medium (RPMI-1640 with 10% fetal bovine serum and 2 mM L-glutamine). After overnight incubation at 37° C. and 5% CO2, compounds solubilized in DMSO are added as dilution series to the wells in a total volume of 150 nL (0.3% DMSO final). The cells are incubated for 7 days at 37° C. and 5% CO2. Cell proliferation is quantitated by addition of 40 uL/well of CellTiter-GloO 3D (Promega), and the well contents are mixed 20× at high speed using liquid handling automation workstation (Bravo with 384-well head) and centrifuged at 1500 rpm for 2 minutes to eliminate bubbles. This reagent in combination with mechanical disruption releases the cellular ATP to promote activity in a luciferase-based enzyme/substrate chemiluminescent detection system. After a 30-minute incubation under ambient conditions with shaking and an additional 10 minutes without shaking, the luminescence is read on a plate reader (e.g. EnVision [PerkinElmer]). The results are normalized to percent inhibition based on the following control samples: DMSO (0% inhibition) and 1 uM staurosporine (100% inhibition). The normalized luminescence results are plotted against compound concentration, and the data are fit to a 4-parameter Hill equation to determine the IC50 values.

[2] = test system: H1975 (KRAS wild type human lung adenocarcinoma cell line); experiment: KRAS 3D-Cell Proliferation Assay, H1975 (CellTiter-Glo 3D, 7 days); format: cell-based; details: H1975 3D culture, read-out: Prolif H1975 3D ATP IC50
Protocol: as §1

[3] = target: T1, KRAS WT (Homo sapiens (Human), UniProt P01116); experiment: KRAS WT Biochemical Assay, BODIPY-GDP Exchange TR-FRET (Example 502; 0.06 nM KRAS WT, 15 nM GDP, 300 nM SOS1, 120-minute incubation); details: read-out: KRas HTRF IC50
T1 sequence (P01116-2 other isoform, or with tags, fused parts or gaps): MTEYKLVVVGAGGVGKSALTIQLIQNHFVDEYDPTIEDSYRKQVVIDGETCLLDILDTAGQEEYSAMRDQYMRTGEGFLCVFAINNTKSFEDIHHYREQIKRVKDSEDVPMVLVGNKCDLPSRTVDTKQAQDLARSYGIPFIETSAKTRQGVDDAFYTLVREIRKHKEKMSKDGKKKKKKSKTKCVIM
Procedure, shortened: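 IC50 from a 4-parameter Hill fit of percent inhibition, itself the TR-FRET 520/490 nm ratio scaled between DMSO and a fully inhibiting control. Reaction: 300 nM SOS1 and 300 nM BODIPY-GDP added to preformed 0.06 nM KRAS WT/15 nM GDP/Tb-streptavidin complex; 120 min incubation; pH 7.5 HEPES, MgCl2, DTT.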

[4] = target: KRAS G12D (Homo sapiens (Human), UniProt P01116, G12D); experiment: KRAS G12D LoEnz Biochemical Assay, BODIPY-GDP Exchange TR-FRET (SOS1-mediated nucleotide exchange); details: read-out: KRas (G12D) GDP HTRF IC50
Sequence of KRAS G12D (P01116-2 other isoform, or with tags, fused parts or gaps G12D): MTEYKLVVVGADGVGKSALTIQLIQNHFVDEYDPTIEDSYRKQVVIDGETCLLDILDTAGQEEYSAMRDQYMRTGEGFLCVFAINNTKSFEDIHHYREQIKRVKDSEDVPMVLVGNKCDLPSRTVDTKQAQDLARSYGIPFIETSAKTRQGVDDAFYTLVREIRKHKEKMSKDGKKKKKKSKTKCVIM

[5] = test system: PC-9 (KRAS wild type human lung adenocarcinoma cell line); experiment: KRAS 3D-Cell Proliferation Assay, PC-9 (CellTiter-Glo 3D, 7 days); format: cell-based; details: PC-9 3D culture, read-out: Prolif PC9 3D ATP IC50
Protocol: as §1

[6] = target: T1, KRAS WT; experiment: KRAS WT Biochemical Assay, BODIPY-GDP Exchange TR-FRET (Example 501; 3 nM KRAS WT, 3 nM SOS1, 60-minute incubation)
Procedure, shortened: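 SOS1-mediated exchange assay: 3 nM biotin-KRAS WT with terbium-streptavidin, started with 3 nM SOS1 and 300 nM BODIPY-GDP, HEPES pH 7.5 with MgCl2. TR-FRET (520/490 nm) read after 60 min; normalized to DMSO and full-inhibition control, IC50 from 4-parameter Hill fit.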

[7] = read-out: KRas(wt) GDP HTRF IC50

| Structure (SMILES) | IC50 ([1]; Homo sapiens, HPAC, 168 h) [nM] | IC50 ([2]; Homo sapiens, NCI-H1975, 168 h) [nM] | IC50 [3] [nM] | IC50 [4] [nM] | IC50 [1] [nM] | IC50 [2] [nM] | IC50 [5] [nM] | IC50 [6, 7] | IC50 ([5]; Homo sapiens, PC-9, 168 h) [nM] | IC50 ([6]; read-out: KRas HTRF IC50) [nM] |
| --- | --- | --- | --- | --- | --- | --- | --- | --- | --- | --- |
| Cc1c(F)c(N)cc(-c2nc3c4c(nc(OCC56CCCN5CC(F)C6F)nc4c2F)N2C[C@H]4CC[C@H](N4)[C@H]2[C@H](C)O3)c1C(F)(F)F (single isomer, unassigned) [143 (isomer 2)] | 3.52 | 1130 | 33.5 | 0.26 |  |  |  |  |  |  |
| Cc1c(F)c(N)cc(-c2nc3c4c(nc(OC[C@@H]5C[C@@H]6C[N@@]5CCO6)nc4c2F)N2C[C@H]4CC[C@H](N4)[C@H]2[C@H](C)O3)c1C(F)(F)F (single isomer, unassigned) [151 (isomer 1)] | 323 | 20000 | 398 | 1.84 |  |  |  |  |  |  |
| Cc1c(F)c(N)cc(-c2nc3c4c(nc(OCC5C[C@@H]6C[N@@]5CCO6)nc4c2F)N2C[C@H]4CC[C@H](N4)[C@H]2[C@H](C)O3)c1C(F)(F)F (single isomer, unassigned) [151 (isomer 2)] | 8.04 | 1690 | 25.5 | 0.12 |  |  |  |  |  |  |
| Cc1c(F)c(N)cc(-c2nc3c4c(nc(OCC5CCC6CC(F)(F)CN56)nc4c2F)N2C[C@H]4CC[C@H](N4)[C@H]2[C@H](C)O3)c1C(F)(F)F (single isomer, unassigned) [153 (isomer 1)] |  | 4740 | 90.9 | 0.37 | 19 |  |  |  |  |  |
| Cc1c(F)c(N)cc(-c2nc3c4c(nc(OCC5CCC6CC(F)(F)CN56)nc4c2F)N2C[C@H]4CC[C@H](N4)[C@H]2[C@H](C)O3)c1C(F)(F)F (single isomer, unassigned) [153 (isomer 2)] |  |  | 87.6 | 0.32 | 13.4 | 4180 |  |  |  |  |
| Cc1c(F)c(N)cc(-c2nc3c4c(nc(OCC5CCC6CC(F)(F)CN56)nc4c2F)N2C[C@H]4CC[C@H](N4)[C@H]2[C@H](C)O3)c1C(F)(F)F (single isomer, unassigned) [153 (isomer 3)] |  |  | 125 | 0.55 | 32.9 | 4490 |  |  |  |  |
| Cc1c(F)c(N)cc(-c2nc3c4c(nc(OC[C@@H]5C[C@H]6COCCN65)nc4c2F)N2C[C@H]4CC[C@H](N4)[C@H]2[C@H](C)O3)c1C(F)(F)F (single isomer, unassigned) [159 (diast. 2)] | 23.8 | 1240 | 48.1 | 0.23 |  |  |  |  |  |  |
| Cc1c(F)c(N)cc(-c2nc3c4c(nc(OC[C@]5(CN6C[C@H]7C[C@@H]6CO7)CC5(F)F)nc4c2F)N2C[C@H]4CC[C@H](N4)[C@H]2[C@H](C)O3)c1C(F)(F)F (single isomer, unassigned) [166 a] | 1.44 |  | 3.68 | 0.1 |  | 1270 |  |  |  |  |
| C[C@@H]1Oc2nc(-c3cccc4cccc(Cl)c34)c(F)c3nc(OCC45CCN4CC(F)(F)C5)nc(c23)N2C[C@H]3CC[C@H](N3)[C@@H]12 (single isomer, unassigned) [Compound 21] |  |  |  |  |  |  | 8130 | 3890 nM and 1400 nM |  |  |
| Cc1cc(N)nc(-c2nc3c4c(nc(OC[C@]56CCN5CC(F)(F)C6)nc4c2F)N2C[C@H]4CC[C@H](N4)[C@H]2[C@H](C)O3)c1C(F)(F)F (single isomer, unassigned) [Compound 45] |  |  |  |  |  |  |  | 69.4 nM and 319 nM | 20000 |  |
| Cc1cc(N)c(F)c(-c2nc3c4c(ncnc4c2Cl)N2C[C@H]4CC[C@H](N4)[C@H]2[C@H](C)O3)c1C(F)(F)F (single isomer, unassigned) [Compound 94] |  |  | 200000 | 2300 | 2230 | 15200 |  |  |  |  |
| Cc1c(F)c(N)cc(-c2nc3c4c(nc(OCC5CC(F)C6CCCN56)nc4c2F)N2C[C@H]4CC[C@H](N4)[C@H]2[C@H](C)O3)c1C(F)(F)F (single isomer, unassigned) [Compound 160 (diast. 2)] | 6.97 | 755 | 22.5 | 0.12 |  |  |  |  |  |  |
| Cc1c(F)c(N)cc(-c2nc3c4c(nc(OC[C@]5(CN6C[C@H]7C[C@@H]6CO7)CC5(F)F)nc4c2F)N2C[C@H]4CC[C@H](N4)[C@H]2[C@H](C)O3)c1C(F)(F)F [166 b, 5-((5S,5aS,6S,9R)-12-((1-(((1R,4R)-2-Oxa-5-azabicyclo[2.2.1]heptan-5-yl)methyl)-2,2-difluorocyclopropyl)methoxy)-1-fluoro-5-methyl-5a,6,7,8,9,10-hexahydro-5H-4-oxa-3,10a,11,13,14-pentaaza-6,9-methanonaphtho[1,8-ab]heptalen-2-yl)-2-fluoro-3-methyl-4-(trifluoromethyl)aniline] |  |  | 5.38 | 0.15 | 1.49 | 402 |  |  |  |  |
| C#Cc1cccc2cc(O)cc(-c3nc4c5c(nc(OC[C@@]67CCCN6C[C@H](F)C7)nc5c3F)N3C[C@H]5CC[C@H](N5)[C@H]3[C@H](C)O4)c12 [Compound 11, 5-ethynyl-4-((5S,5aS,6S,9R)-1-fluoro-12-(((2R,7aS)-2-fluorotetrahydro-1H-pyrrolizin-7a(5H)-yl)methoxy)-5-methyl-5a,6,7,8,9,10-hexahydro-5H-4-oxa-3,10a,11,13,14-pentaaza-6,9-methanonaphtho[1,8-ab]heptalen-2-yl)naphthalen-2-ol] |  |  |  | 0.06 |  |  |  | 0.38 nM | 20000 |  |
| C#Cc1c(F)ccc2cccc(-c3nc4c5c(nc(OCC67CCN6CC(F)(F)C7)nc5c3F)N3C[C@H]5CC[C@H](N5)[C@H]3[C@H](C)O4)c12 (stereo partly drawn) [Compound 22, (5S,5aS,6S,9R)-12-((3,3-difluoro-1-azabicyclo[3.2.0]heptan-5-yl)methoxy)-2-(8-ethynyl-7-fluoronaphthalen-1-yl)-1-fluoro-5-methyl-5a,6,7,8,9,10-hexahydro-5H-4-oxa-3,10a,11,13,14-pentaaza-6,9-methanonaphtho[1,8-ab]heptane] |  |  |  |  |  |  | 7410 |  |  | 9.95 |
| C#Cc1cccc2cncc(-c3nc4c5c(nc(OC[C@@]67CCCN6C[C@H](F)C7)nc5c3F)N3C[C@H]5CC[C@H](N5)[C@H]3[C@H](C)O4)c12 [Compound 39, (5S,5aS,6S,9R)-2-(5-Ethynylisoquinolin-4-yl)-1-fluoro-12-(((2R,7aS)-2-fluorotetrahydro-1H-pyrrolizin-7a(5H)-yl)methoxy)-5-methyl-5a,6,7,8,9,10-hexahydro-5H-4-oxa-3,10a,11,13,14-pentaaza-6,9-methanonaphtho[1,8-ab]heptalene] |  |  |  | 1.78 |  |  |  | 76.1 nM | 20000 |  |
| C[C@@H]1Oc2nc(-c3nc(N)cc4ccccc34)c(F)c3nc(OC[C@@]45CCCN4C[C@H](F)C5)nc(c23)N2C[C@H]3CC[C@H](N3)[C@@H]12 [Compound 41, 1-((5S,5aS,6S,9R)-1-fluoro-12-(((2R,7aS)-2-fluorotetrahydro-1H-pyrrolizin-7a(5H)-yl)methoxy)-5-methyl-5a,6,7,8,9,10-hexahydro-5H-4-oxa-3,10a,11,13,14-pentaaza-6,9-methanonaphtho[1,8-ab]heptalen-2-yl)isoquinolin-3-amine] |  |  |  | 6.35 |  |  |  | 296 nM | 20000 |  |
| Cc1cc(N)c(F)c(-c2nc3c4c(ncnc4c2Cl)N2C[C@H]4CC[C@H](N4)[C@H]2[C@H](C)O3)c1C(F)(F)F [Compound 93, 3-((5S,5aS,6S,9R)-1-chloro-5-methyl-5a,6,7,8,9,10-hexahydro-5H-4-oxa-3,10a,11,13,14-pentaaza-6,9-methanonaphtho[1,8-ab]heptalen-2-yl)-2-fluoro-5-methyl-4-(trifluoromethyl)aniline] | 836 | 20000 | 14400 | 73.4 |  |  |  |  |  |  |
| Cc1c(F)c(N)cc(-c2nc3c4c(nc(OC[C@@]56CCCN5CC5(CC5(F)F)C6)nc4c2F)N2C[C@H]4CC[C@H](N4)[C@H]2[C@@H](C)O3)c1C(F)(F)F (stereo partly shown) [compound 63] |  |  | 21.7 | 0.15 | 82.4 | 20800 |  |  |  |  |
